Blank lines part the entries; values can stand above or below the compound they belong to.
Key:
AspRedAm = molecular target: T1, AspRedAm (Aspergillus oryzae, UniProt Q2TW47); experiment: reductive amination, HPLC or LC-MS conversion; type: biochemical; settings: 5 mM each, NADP+/GDH/glucose recycling, pH 7.0
T1 construct: gene AO090010000708; N-terminal His tag, expressed in E. coli BL21(DE3), Ni-NTA purified; dimer
T1 sequence (Q2TW47 1-295): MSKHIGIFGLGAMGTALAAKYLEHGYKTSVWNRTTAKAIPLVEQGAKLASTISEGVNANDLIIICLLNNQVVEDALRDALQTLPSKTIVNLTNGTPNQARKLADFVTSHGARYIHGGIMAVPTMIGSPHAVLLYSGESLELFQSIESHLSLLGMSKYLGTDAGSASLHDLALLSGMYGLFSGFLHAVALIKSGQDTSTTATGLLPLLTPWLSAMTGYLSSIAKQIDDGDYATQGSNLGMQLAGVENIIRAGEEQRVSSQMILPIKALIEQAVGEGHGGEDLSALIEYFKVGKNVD

IR-G02 = molecular target: T2, IR-G02 (Streptomyces albidoflavus, UniProt Z9MF94CC36); experiment: X-ray crystallography; type: binding; settings: co-crystallised with 10 eq NADP+, pH 7.5, 18 °C
T2 construct: N-terminal His6 tag, expressed in E. coli BL21(DE3), Ni-NTA and SEC purified; homodimer with active site at the interface
T2 sequence (Z9MF94CC36 21-319): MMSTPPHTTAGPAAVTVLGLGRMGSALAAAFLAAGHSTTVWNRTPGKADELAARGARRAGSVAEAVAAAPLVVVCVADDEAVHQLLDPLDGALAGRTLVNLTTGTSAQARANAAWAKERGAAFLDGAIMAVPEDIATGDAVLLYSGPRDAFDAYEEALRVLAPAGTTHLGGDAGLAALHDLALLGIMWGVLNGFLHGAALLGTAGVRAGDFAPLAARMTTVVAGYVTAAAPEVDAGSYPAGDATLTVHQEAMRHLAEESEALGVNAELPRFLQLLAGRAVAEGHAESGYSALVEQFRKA

[1] = molecular target: IR-G02 (imine reductase from Streptomyces albidoflavus) (Streptomyces albidoflavus); experiment: crystal structure; apo IR-G02; sitting-drop vapour diffusion at 18 °C; 0.2 M ammonium acetate, 0.1 M Bis-Tris 5.5, 25 % w/v PEG 3350; protein 20 mg ml^-1

Compound: NC1CC1 [A, cyclopropylamine]
- conversion (AspRedAm; amine donor with cyclohexanone): > 90%

- X-ray crystallography (IR-G02): NADP^+ complex of IR-G02 (PDB ID: 7XR5)
Compound: NC(=O)c1ccc[n+]([C@@H]2O[C@H](COP(=O)(O)OP(=O)(O)OC[C@H]3O[C@@H](n4cnc5c(N)ncnc54)[C@H](OP(=O)(O)O)[C@@H]3O)[C@@H](O)[C@H]2O)c1 [NADP^+]

Compound: O=C1CCCCC1 [compound 1, cyclohexanone]
- conversion (AspRedAm; carbonyl donor with cyclopropylamine): > 90%

- stoichiometry N [1]: 2
Compound: IR-G02 (imine reductase from Streptomyces albidoflavus) (enzyme)

— PMC9814587, “Actinomycetes-derived imine reductases with a preference towards bulky amine substrates” (Communications Chemistry, 2022)
